Measured values reported in US20150231236A1, “METHODS FOR TREATING PATIENTS WITH HYPERCHOLESTEROLEMIA THAT IS NOT ADEQUATELY CONTROLLED BY MODERATE-DOSE STATIN THERAPY” (Regeneron Pharmaceuticals, Inc., priority 2014, published 2015).

Tested on: patients with hypercholesterolemia at high CV risk not adequately controlled with atorvastatin (20 mg or 40 mg)
Assay: Example 2: randomized, double-blind trial, lipid efficacy of mAb316P add-on to atorvastatin vs EZE add-on, atorvastatin dose doubling or switch to rosuvastatin
Assay type: in vivo, human
Details: ITT Population
Method in brief: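 Patients on atorvastatin 20 or 40 mg randomized to mAb316P 75 mg SC Q2W (raised to 150 mg from week 12 per CV risk) or blinded comparators, over 24 weeks. Endpoint: percent change in calculated LDL-C (Friedewald; beta quantification if TG >400 mg/dL) from baseline to week 24.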

[1] = Comparison 1: mAb316P + atorva 20 mg arm vs. atorva 40 mg arm
[2] = Comparison 2: mAb316P + atorva 20 mg arm vs. EZE + atorva 20 mg arm
[3] = Comparison 3: mAb316P + atorva 40 mg arm vs. atorva 80 mg arm
[4] = Comparison 4: mAb316P + atorva 40 mg arm vs. rosuva 40 mg arm

mAb316P: human anti-PCSK9 antibody; heavy chain SEQ ID NO:5, light chain SEQ ID NO:9
Delta, percent change from baseline of Apo B to week 24 [1]: −29.3%
Delta, percent change from baseline of Apo-B to week 12 [1]: −31.5%
Delta, percent change from baseline of HDL-C to week 24 [1]: 2.9%
Delta, percent change from baseline of Lp(a) to week 24 [1]: −3.4%
Delta, percent change from baseline of Non-HDL-C to week 12 [1]: −33.5%
Delta, percent change from baseline of Total-C to week 12 [1]: −22.6%
Delta, percent change from baseline of Total-C to week 24 [1]: −23.1%
Delta, percent change from baseline of calculated LDL-C to week 12 [1]: −39.8%
Delta, percent change from baseline of calculated LDL-C to week 24 [1]: −39.1%
Delta, percent change from baseline of non-HDL-C to week 24 [1]: −30.4%
Odds Ratio, proportion of patients reaching calculated LDL-C < 70 mg/dL at Week 24 [1]: 28.9
Odds Ratio, proportion of very high CV risk patients reaching calculated LDL-C < 70 mg/dL or high CV risk patients reaching calculated LDL-C < 100 mg/dL at Week 24 [1]: 16.3
Delta, percent change from baseline of Apo B to week 24 [2]: −23.6%
Delta, percent change from baseline of Apo-B to week 12 [2]: −25.3%
Delta, percent change from baseline of HDL-C to week 24 [2]: 4.9%
Delta, percent change from baseline of Lp(a) to week 24 [2]: −13.0%
Delta, percent change from baseline of Non-HDL-C to week 12 [2]: −23.4%
Delta, percent change from baseline of Total-C to week 12 [2]: −15.8%
Delta, percent change from baseline of Total-C to week 24 [2]: −15.8%
Delta, percent change from baseline of calculated LDL-C to week 12 [2]: −25.8%
Delta, percent change from baseline of calculated LDL-C to week 24 [2]: −23.6%
Delta, percent change from baseline of non-HDL-C to week 24 [2]: −21.6%
Odds Ratio, proportion of patients reaching calculated LDL-C < 70 mg/dL at Week 24 [2]: 4.7
Odds Ratio, proportion of very high CV risk patients reaching calculated LDL-C < 70 mg/dL or high CV risk patients reaching calculated LDL-C < 100 mg/dL at Week 24 [2]: 3.7
Delta, percent change from baseline of Apo B to week 24 [3]: −38.4%
Delta, percent change from baseline of Apo-B to week 12 [3]: −26.7%
Delta, percent change from baseline of HDL-C to week 24 [3]: 2.9%
Delta, percent change from baseline of Lp(a) to week 24 [3]: −21.1%
Delta, percent change from baseline of Non-HDL-C to week 12 [3]: −29.3%
Delta, percent change from baseline of Total-C to week 12 [3]: −19.1%
Delta, percent change from baseline of Total-C to week 24 [3]: −28.9%
Delta, percent change from baseline of calculated LDL-C to week 12 [3]: −36.0%
Delta, percent change from baseline of calculated LDL-C to week 24 [3]: −49.2%
Delta, percent change from baseline of non-HDL-C to week 24 [3]: −41.1%
Odds Ratio, proportion of patients reaching calculated LDL-C < 70 mg/dL at Week 24 [3]: 116.8
Odds Ratio, proportion of very high CV risk patients reaching calculated LDL-C < 70 mg/dL or high CV risk patients reaching calculated LDL-C < 100 mg/dL at Week 24 [3]: 92.5
Delta, percent change from baseline of Apo B to week 24 [4]: −30.9%
Delta, percent change from baseline of Apo-B to week 12 [4]: −22.2%
Delta, percent change from baseline of HDL-C to week 24 [4]: 2.0%
Delta, percent change from baseline of Lp(a) to week 24 [4]: −25.9%
Delta, percent change from baseline of Non-HDL-C to week 12 [4]: −22.5%
Delta, percent change from baseline of Total-C to week 12 [4]: −15.4%
Delta, percent change from baseline of Total-C to week 24 [4]: −21.9%
Delta, percent change from baseline of calculated LDL-C to week 12 [4]: −27.3%
Delta, percent change from baseline of calculated LDL-C to week 24 [4]: −32.6%
Delta, percent change from baseline of non-HDL-C to week 24 [4]: −30.2%
Odds Ratio, proportion of patients reaching calculated LDL-C < 70 mg/dL at Week 24 [4]: 13.2
Odds Ratio, proportion of very high CV risk patients reaching calculated LDL-C < 70 mg/dL or high CV risk patients reaching calculated LDL-C < 100 mg/dL at Week 24 [4]: 6.1
Delta, percent change from baseline of Apo B to week 24 (Comparison 5: mAb316P + atorva 40 mg arm vs. EZE + atorva 40 mg arm): −27.6%
